For test [1], the system named is HAP1 MTAP-intact cell line. The experiment in a line: SDMA in-cell western assay, HAP1 MTAP-intact. In kind it is cell-based. The following applies: Homo sapiens, HAP1, SDMA in-cell western, HAP1 MTAP-intact; read-out: MTAP HAP1 intact IC50. Put shortly:
(§1)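 Readout: in-cell western detection of SDMA. Cells: HAP1 expressing endogenous MTAP and an MTAP-null HAP1 counterpart. Output: IC50.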

The target of test [2] is T1, PRMT5 (Homo sapiens, UniProt O14744).
T1 construct: purchased Viva (custom protein)
The experiment in a line: PRMT5 biochemical IC50 assay with no cofactor. The following applies: PRMT5, no cofactor; read-out: No Cofactor/rel IC50. The text has this:
Table 1 indicates IC50 values (μM) against PRMT5 for exemplary compounds in the presence of SAM as cofactor, with no cofactor, and with MTA as cofactor, respectively (columns 4-6). […] Ki values can be calculated from the IC50 values as described in the Examples section. As detailed in the Examples section, for the assay performed in the presence of SAM, IC50=Ki×1.5 (Ki=IC50/1.5).

The test system of test [3] is HAP1 MTAP-deleted cell line. Nature of the test: SDMA in-cell western assay, HAP1 MTAP-deleted. Particulars: for IC50: Homo sapiens, HAP1, SDMA in-cell western, HAP1 MTAP-deleted; for MTAP intact/deleted ratio: IC50 ratio HAP1 MTAP-intact / HAP1 MTAP-deleted, SDMA in-cell western. In kind it is cell-based. In outline: as §1
Test [4] concerns HAP1 MTAP-deleted cell line. The experiment in a line: Viability assay, MTAP-deleted cell line. The test is classed as cell-based. Particulars: Homo sapiens, read-out: HAP1 MTAP deleted viability. The text has this:
Table 1 additionally indicates IC50 values in a viability assay for the MTAP-deleted cell line (column 10), indicating the effect of treatment with compound on cell survival.

Test [5] concerns the target T1, PRMT5. The experiment in a line: PRMT5 biochemical IC50 assay with MTA as cofactor. Particulars: PRMT5, MTA as cofactor; read-out: MTA IC50.
Test [6] has as its target T1, PRMT5. Nature of the test: PRMT5 biochemical IC50 assay with SAM as cofactor. Particulars: PRMT5, SAM as cofactor; read-out: SAM IC50.
The mark [7] stands for this setting: read-out: HAP 1 MTAP deleted IC50.
[8] abbreviates: HAP1, viability IC50, MTAP-deleted cell line.
Setting [9] is: read-out: HAP1 MTAP deleted IC50.
Where [10] appears, read: HAP1, viability assay, HAP1 MTAP-deleted.

These results are taken from patent US11999727B2 (Tango Therapeutics, Inc., priority 2020, dated 2024).

T1 sequence (O14744 whole entry): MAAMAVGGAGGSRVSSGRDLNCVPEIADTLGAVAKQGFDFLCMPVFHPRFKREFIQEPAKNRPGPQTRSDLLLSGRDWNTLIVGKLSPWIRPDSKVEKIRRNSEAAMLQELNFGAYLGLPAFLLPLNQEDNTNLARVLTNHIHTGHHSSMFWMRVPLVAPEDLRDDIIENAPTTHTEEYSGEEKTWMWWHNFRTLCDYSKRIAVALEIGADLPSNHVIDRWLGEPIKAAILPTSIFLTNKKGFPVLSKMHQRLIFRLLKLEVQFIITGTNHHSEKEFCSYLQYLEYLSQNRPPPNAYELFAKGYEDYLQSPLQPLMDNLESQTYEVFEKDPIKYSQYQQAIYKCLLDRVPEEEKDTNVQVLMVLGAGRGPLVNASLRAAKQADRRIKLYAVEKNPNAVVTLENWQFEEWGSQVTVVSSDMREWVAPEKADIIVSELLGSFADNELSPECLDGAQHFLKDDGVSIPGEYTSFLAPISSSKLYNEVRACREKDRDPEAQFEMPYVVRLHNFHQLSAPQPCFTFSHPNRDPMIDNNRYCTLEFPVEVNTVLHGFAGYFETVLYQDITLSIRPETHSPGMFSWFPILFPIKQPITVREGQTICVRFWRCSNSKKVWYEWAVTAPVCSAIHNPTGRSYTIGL
T1 sequence (Q9BQA1 whole entry partner): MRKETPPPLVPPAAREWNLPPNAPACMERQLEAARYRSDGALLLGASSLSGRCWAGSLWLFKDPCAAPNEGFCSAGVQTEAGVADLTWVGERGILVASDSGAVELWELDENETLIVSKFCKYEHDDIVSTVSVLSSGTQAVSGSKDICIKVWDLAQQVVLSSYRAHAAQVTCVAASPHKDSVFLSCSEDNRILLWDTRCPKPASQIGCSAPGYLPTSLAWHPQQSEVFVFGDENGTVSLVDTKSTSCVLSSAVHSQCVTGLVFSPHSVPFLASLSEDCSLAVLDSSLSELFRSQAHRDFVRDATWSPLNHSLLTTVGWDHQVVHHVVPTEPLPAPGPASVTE

For `Cc1cc(NC(=O)C(=O)N2C[C@H](C)CC[C@H]2c2cccc(S(C)(=O)=O)c2)cnc1N` (racemic) [Compound 667, N-(6-amino-5-methyl-3-pyridyl)-2-[(2R,5S)-5-methyl-2-(3-methylsulfonylphenyl)-1-piperidyl]-2-oxo-acetamide], the IC50 was over 1000 nM in test [1]; 50 to 500 nM on PRMT5 [2]; 100 to 1000 nM in test [3] (setting [7]); 1 to 10 µM in test [4] (setting [8]); 50 to 500 nM on PRMT5 [5]; 50 to 500 nM at PRMT5 [6]. Also, the MTAP intact/deleted ratio entry in test [3] is recorded as “A (an IC50 ratio greater than or equal to 10 fold)”.

`CNS(=O)(=O)c1ccc([C@@H]2CC[C@@H](C)CN2C(=O)C(=O)Nc2cnc(N)c(C)c2)cc1` (racemic) [Compound 668, N-(6-amino-5-methyl-3-pyridyl)-2-[(2S,5R)-5-methyl-2-[4-(methylsulfamoyl)phenyl]-1-piperidyl]-2-oxo-acetamide]: the IC50 in test [1] is 100 to 1000 nM; on PRMT5 [2], 50 to 500 nM; in test [3] (setting [7]), 100 to 1000 nM; in test [4] (setting [8]) it was 1 to 10 µM; on PRMT5 [5], under 50 nM; on PRMT5 [6] it was 50 to 500 nM. Also, the MTAP intact/deleted ratio entry in test [3] is recorded as “B (an IC50 ratio greater than or equal to 3 fold but lower than 10 fold)”.

In the case of `NC(=O)c1cncc(NC(=O)C(=O)N2C[C@H](c3cc[nH]n3)CC[C@H]2c2ccccc2)c1` (racemic) [Compound 669, rac-5-(2-oxo-2-((2R,5S)-2-phenyl-5-(1H-pyrazol-5-yl)piperidin-1-yl)acetamido)nicotinamide], the IC50 in test [1] is over 1000 nM; on PRMT5 [2] it was over 500 nM; in test [3] (setting [7]), over 1000 nM; in test [4] (setting [8]) it was over 10 µM; on PRMT5 [5], 50 to 500 nM; at PRMT5 [6], over 500 nM. Further, in test [3], the MTAP intact/deleted ratio result is “C (an IC50 ratio of less than 3 fold)”.

Take `C[C@@H]1CC[C@@H](c2ccc3[nH]c(=O)ccc3c2)N(C(=O)C(=O)Nc2cncc(C(N)=O)c2)C1` (racemic) [Compound 670, rac-5-(2-((2R,5S)-5-Methyl-2-(2-oxo-1,2-dihydroquinolin-6-yl)piperidin-1-yl)-2-oxoacetamido)nicotinamide]: the IC50 in test [1] was over 1000 nM; on PRMT5 [2], 50 to 500 nM; in test [3] (setting [7]), 100 to 1000 nM; in test [4] (setting [8]), 1 to 10 µM; at PRMT5 [5], under 50 nM; at PRMT5 [6] it was 50 to 500 nM. The MTAP intact/deleted ratio result in test [3] is given as “A (an IC50 ratio greater than or equal to 10 fold)”.

Turning to `Cc1cc(NC(=O)C(=O)N2C[C@H](C)CC[C@H]2c2ccc3[nH]c(=O)ccc3c2)cnc1N` (racemic) [Compound 671, rac-N-(6-Amino-5-methyl-3-pyridyl)-2-[5-methyl-2-(2-oxo-1H-quinolin-6-yl)-1-piperidyl]-2-oxo-acetamide], the IC50 is 100 to 1000 nM in test [1]; 50 to 500 nM at PRMT5 [2]; under 100 nM in test [3] (setting [7]); under 1 µM in test [4] (setting [8]); under 50 nM on PRMT5 [5]; 50 to 500 nM on PRMT5 [6]. Further, in test [3], the MTAP intact/deleted ratio entry is listed as “B (an IC50 ratio greater than or equal to 3 fold but lower than 10 fold)”.

In the case of `Cc1cc(NC(=O)C(=O)N2C[C@H](C)CC[C@H]2c2ccc(C(C)(C)O)cc2)cnc1N` (racemic) [Compound 672, N-(6-amino-5-methyl-3-pyridyl)-2-[(2R,5S)-2-[4-(1-hydroxy-1-methyl-ethyl)phenyl]-5-methyl-1-piperidyl]-2-oxo-acetamide], the IC50 in test [1] was over 1000 nM; on PRMT5 [2], 50 to 500 nM; in test [3] (setting [7]), 100 to 1000 nM; in test [4] (setting [8]) it was 1 to 10 µM; on PRMT5 [5], 50 to 500 nM; on PRMT5 [6], 50 to 500 nM. Besides, the MTAP intact/deleted ratio entry in test [3] is listed as “B (an IC50 ratio greater than or equal to 3 fold but lower than 10 fold)”.

`Cc1cc(NC(=O)C(=O)N2C[C@H](C)CC[C@H]2c2cnc3scnc3c2)cnc1N` (racemic) [Compound 685, N-(6-amino-5-methyl-3-pyridyl)-2-[(2S,5R)-5-methyl-2-thiazolo[5,4-b]pyridin-6-yl-1-piperidyl]-2-oxo-acetamide]: the IC50 in test [1] was over 1000 nM; at PRMT5 [2], 50 to 500 nM; in test [3] (setting [7]), 100 to 1000 nM; in test [4] (setting [8]), over 10 µM; on PRMT5 [5], 50 to 500 nM; on PRMT5 [6], over 500 nM. The MTAP intact/deleted ratio result in test [3] is reported as “A (an IC50 ratio greater than or equal to 10 fold)”.

For `Cc1cc(NC(=O)C(=O)N2C[C@H](C)CC[C@H]2c2cccc(S(N)(=O)=O)c2)cnc1N` (racemic) [Compound 688, N-(6-amino-5-methyl-3-pyridyl)-2-[(2S,5R)-5-methyl-2-(3-sulfamoylphenyl)-1-piperidyl]-2-oxo-acetamide], the IC50 in test [1] is over 1000 nM; at PRMT5 [2] it was 50 to 500 nM; in test [3] (setting [7]) it was 100 to 1000 nM; in test [4] (setting [8]) it was 1 to 10 µM; at PRMT5 [5], under 50 nM; on PRMT5 [6], 50 to 500 nM. In test [3], the MTAP intact/deleted ratio entry is “A (an IC50 ratio greater than or equal to 10 fold)”.

For `Cc1cc(NC(=O)C(=O)N2C[C@H](C)CC[C@H]2c2cccc3[nH]ncc23)cnc1N` (racemic) [Compound 690, rac-N-(6-amino-5-methyl-3-pyridyl)-2-[(2S,5R)-2-(1H-indazol-4-yl)-5-methyl-1-piperidyl]-2-oxo-acetamide], the IC50 is over 1000 nM in test [1]; 50 to 500 nM at PRMT5 [2]; 100 to 1000 nM in test [3] (setting [7]); 1 to 10 µM in test [4] (setting [8]); under 50 nM on PRMT5 [5]; 50 to 500 nM at PRMT5 [6]. In test [3], the MTAP intact/deleted ratio entry was “A (an IC50 ratio greater than or equal to 10 fold)”.

For `CNS(=O)(=O)c1cccc([C@@H]2CC[C@@H](C)CN2C(=O)C(=O)Nc2cnc(N)c(C)c2)c1` (racemic) [Compound 691, N-(6-amino-5-methyl-3-pyridyl)-2-[(2S,5R)-5-methyl-2-[3-(methylsulfamoyl)phenyl]-1-piperidyl]-2-oxo-acetamide], the IC50 in test [1] is over 1000 nM; at PRMT5 [2], 50 to 500 nM; in test [3] (setting [7]), 100 to 1000 nM; in test [4] (setting [8]) it was 1 to 10 µM; on PRMT5 [5], under 50 nM; on PRMT5 [6], 50 to 500 nM. Moreover, the MTAP intact/deleted ratio result in test [3] is “A (an IC50 ratio greater than or equal to 10 fold)”.

In the case of `Cc1cc(NC(=O)C(=O)N2C[C@H](C)CC[C@H]2C2CC3(CCC3)C2)cnc1N` (racemic) [Compound 692, N-(6-amino-5-methylpyridin-3-yl)-2-(5-methyl-2-(spiro[3.3]heptan-2-yl)piperidin-1-yl)-2-oxoacetamide], the IC50 in test [1] is over 1000 nM; at PRMT5 [2] it was over 500 nM; in test [3] (setting [7]), over 1000 nM; in test [4] (setting [8]) it was over 10 µM; at PRMT5 [5], 50 to 500 nM; on PRMT5 [6] it was over 500 nM. Further, the MTAP intact/deleted ratio entry in test [3] was “C (an IC50 ratio of less than 3 fold)”.

Turning to `CCc1cc(NC(=O)C(=O)N2C[C@@H](C)CC[C@@H]2c2ccc(F)cc2)cnc1N` (racemic) [Compound 710, N-(6-amino-5-ethylpyridin-3-yl)-2-(2-(4-fluorophenyl)-5-methylpiperidin-1-yl)-2-oxoacetamide], the IC50 in test [1] is over 1000 nM; on PRMT5 [2], under 50 nM; in test [3] (setting [9]) it was under 100 nM; in test [4] (setting [10]), under 1 µM; at PRMT5 [5], under 50 nM; on PRMT5 [6] it was 50 to 500 nM. For the same compound, the MTAP intact/deleted ratio entry in test [3] was “A (an IC50 ratio greater than or equal to 10 fold)”.

On to `[H][C@@]1([C@]2([H])C[C@@]3(C[C@H](O)C3)C2)CC[C@@H](C)CN1C(=O)C(=O)Nc1cnc(N)c(C)c1` (mixture of isomers) [Compound 711], for which the IC50 in test [1] is over 1000 nM; at PRMT5 [2], over 500 nM; in test [3] (setting [9]) it was over 1000 nM; in test [4] (setting [10]), over 10 µM; at PRMT5 [5] it was 50 to 500 nM; at PRMT5 [6] it was over 500 nM. The MTAP intact/deleted ratio result in test [3] is on record as “B (an IC50 ratio greater than or equal to 3 fold but lower than 10 fold)”.

Regarding `Cc1cc(NC(=O)C(=O)N2C[C@H](C)CC[C@H]2c2cccc3c2CC(=O)N3)cnc1N` (racemic) [Compound 714, N-(6-Amino-5-methyl-3-pyridyl)-2-[(2S,5R)-5-methyl-2-(2-oxoindolin-4-yl)-1-piperidyl]-2-oxo-acetamide], the IC50 was over 1000 nM in test [1]; 50 to 500 nM on PRMT5 [2]; 100 to 1000 nM in test [3] (setting [9]); 1 to 10 µM in test [4] (setting [10]); under 50 nM at PRMT5 [5]; 50 to 500 nM on PRMT5 [6]. In addition, the MTAP intact/deleted ratio entry in test [3] is “A (an IC50 ratio greater than or equal to 10 fold)”.
